Measurements as given in US5861396A, “Purin-6-one derivatives” (Bayer Aktiengesellschaft, priority 1995, dated 1999).

Legend:
[1] = tested on: PDE II (c-GMP-stimulable); assay: Inhibition of the phosphodiesterases in vitro: PDE II; assay type: biochemical, porcine or bovine (myocardium); conditions: ^3H cAMP substrate, 10^-6 mol/l unlabelled cGMP added; pH 7.5; 30 min
Method: (§1) The c-GMP-stimulable PDE II, the c-GMP-inhibitable PDE III and the cAMP-specific PDE IV were isolated either from porcine or bovine myocardium. The Ca^2+ calmodulin-stimulable PDE I was isolated from porcine aorta, porcine brain or preferably from bovine aorta The c-GMP-specific PDE V was obtained from porcine small intestine, porcine aorta, human blood platelets and preferably from bovine aorta. Purification was carried out by anion exchange chromatography on Mono® Pharmacia essentially according to the method of M. Hoey and Miles D. Houslay, Biochemical Pharmacology, Vol. 40, 193-202 (1990) and C. Lugman et al., Biochemical Pharmacology Vol. 35, 1743-1751 (1986).
(§2) The enzyme activity was determined in a test mixture of 100 μl in 20 mM tris/HCl buffer ph 7.5 which contains 5 MM MgCl2, 0.1 mg/ml of bovine serum albumin and either 800 Bq of ^3 HcAMP or ^3 HcGMP. The final concentration of the corresponding nucleotides is 10^-6 mol/l. The reaction is started by addition of the enzyme; the amount of enzyme is proportioned such that during the incubation time of 30 min about 50% of the substrate is reacted. In order to test the cGMP-stimulable PDE II, ^3 HcAMP is used as a substrate and 10^-6 mol/l of unlabelled cGMP is added to the mixture. In order to test the Ca calmodulin-dependent PDE I, additionally CaCl2, 1 μM and calmodulin, 0.1 μM are added to the reaction mixture. The reaction is stopped by addition of 100 μl of acetonitrile which contains 1 mM cAMP and 1 mM AMP. 100 μl of the reaction mixture are separated on an HPLC and the cleavage products are quantitatively determined "on-line" using a flow scintillation counter. The substance concentration is measured at which the reaction rate is decreased by 50%. Additionally, the "phosphodiesterase [3H] cAMP-SPA enzyme assay" and the "phosphodiesterase [^3 H] cGMP-SPA enzyme assay" from Amersham Life Science were used for testing. The test was carried out according to the experimental protocol indicated by the manufacturer. For activity determination of the PDE2, the [^3 H] cAMP SPA assay was used, 10^-6 M cGMP being added to the reaction mixture to activate the enzyme. For the measurement of PDE1, calmodulin, 10^-7 M and CaCl2, 1 μM were added to the reaction mixture. The PDE5 was measured using the [^3 H] cGMP SPA assay.

[2] = tested on: PDE V (c-GMP-specific); assay: Inhibition of the phosphodiesterases in vitro: PDE V; assay type: biochemical; conditions: nucleotide 10^-6 mol/l, pH 7.5, 30 min; or [^3H] cGMP SPA assay
Method: as §1, §2

[3] = tested on: PDE I (Ca^2+ calmodulin-stimulable); assay: Inhibition of the phosphodiesterases in vitro: PDE I; assay type: biochemical, porcine aorta, porcine brain or preferably bovine aorta; conditions: CaCl2 1 μM and calmodulin 0.1 μM added; nucleotide 10^-6 mol/l; pH 7.5; 30 min
Method: as §1, §2

SMILES	IC50 [1] [nM]	IC50 [2] [nM]	IC50 [3] [nM]
CC(O)C(CCCc1ccccc1)n1cnc2c(=O)[nH]c(Cc3ccc(F)cc3)nc21 (stereo not drawn) [Example 69]	60	500	3000
CC(CCCc1ccccc1)n1cnc2c(=O)[nH]c(Cc3ccccc3)nc21 (stereo not drawn) [Example 1]	200	300	500
CC(O)C(CCCc1ccccc1)n1cnc2c(=O)[nH]c(Cc3ccc(Cl)c(Cl)c3)nc21 (stereo not drawn) [Example 34]	20	500	~500
CC(CCCc1ccccc1)n1cnc2c(=O)[nH]c(Cc3ccc(-c4cccnc4)cc3)nc21 (stereo not drawn) [Example 84]	20	1000	100
CC(CCCc1ccccc1)n1cnc2c(=O)[nH]c(Cc3ccc(-c4ccc(F)cc4)cc3)nc21 (stereo not drawn) [Example 80]	80	1000	100
CC(O)C(CCCc1ccccc1)n1cnc2c(=O)[nH]c(Cc3ccccc3)nc21 (stereo not drawn) [Example 33]	100	800	3000

More lines, now with the values ahead:

IC50 [1] [nM]	IC50 [2] [nM]	IC50 [3] [nM]	SMILES
20	500	300	CC(CCCc1ccccc1)n1cnc2c(=O)[nH]c(Cc3ccc(-c4ccsc4)cc3)nc21 (stereo not drawn) [Example 83]
20	500	100	CC(CCCc1ccccc1)n1cnc2c(=O)[nH]c(Cc3ccc(-c4cccc(N)c4)cc3)nc21 (stereo not drawn) [Example 82]
3	1000	500	CC(O)C(CCCc1ccccc1)n1cnc2c(=O)[nH]c(Cc3ccc(NC(=O)C4CCN(C(=O)OCc5ccccc5)CC4)cc3)nc21 (stereo not drawn) [Example 121]
4	1000	1000	COc1ccc(Cc2nc3c(ncn3C(CCCc3ccccc3)C(C)=O)c(=O)[nH]2)cc1OC (stereo not drawn) [Example 100]
4	1000	500	CCOC(=O)N1CCC(C(=O)Nc2ccc(Cc3nc4c(ncn4C(CCCc4ccccc4)C(C)O)c(=O)[nH]3)cc2)CC1 (stereo not drawn) [Example 122]
1	500	500	COc1ccc(Cc2nc3c(ncn3C(CCCc3ccccc3)C(C)O)c(=O)[nH]2)cc1S(=O)(=O)N1CCC(C(=O)O)CC1 (stereo not drawn) [Example 138]
